From the supplement of paper PMC12463676, “Small-molecule dissolution of stress granules by redox modulation benefits ALS models” (Nature Chemical Biology, 2025)

Key:
[1] = compound: NC(=O)CCCCC1CCSS1 [lipoamide]; assay: thermal stability z-score vs DMSO; higher = more thermally stabilized by treatment; details: HeLa, lipoamide concentration 100 µM
Experimental: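 Cellular thermal proteome profiling in HeLa cells. Cells were treated with 100 µM lipoamide for 1 h, with or without 1 mM arsenate for a further 1 h, then heated to ten temperatures (37-66.3 °C), and soluble protein was quantified by TMT mass spectrometry relative to 0.1% DMSO controls. The thermal stability score (sum of log2 fold changes minus the abundance score) was transformed to a z-score; mean of n = 3 experiments.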

[2] = compound: O=[As]([O-])(O)O.[K+] [potassium arsenate]; assay: as above; details: HeLa; arsenate concentration 1 mM
Experimental: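 Cellular thermal proteome profiling in HeLa cells treated with 1 mM arsenate for 1 h (DMSO pretreatment), heated to ten temperatures (37-66.3 °C). Soluble protein was quantified by TMT mass spectrometry relative to DMSO controls; the thermal stability score was transformed to a z-score; mean of n = 3 experiments.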

[3] = arsenate co-treatment: 1 mM arsenate 1 h
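Also: each temperature applied for 3 min, abundance score taken as mean log2 fold change at the two lowest temperatures, z-score obtained by mean subtraction and division by SD.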

UniProt Q9Y2Z2, sequence (Q9Y2Z2 whole entry): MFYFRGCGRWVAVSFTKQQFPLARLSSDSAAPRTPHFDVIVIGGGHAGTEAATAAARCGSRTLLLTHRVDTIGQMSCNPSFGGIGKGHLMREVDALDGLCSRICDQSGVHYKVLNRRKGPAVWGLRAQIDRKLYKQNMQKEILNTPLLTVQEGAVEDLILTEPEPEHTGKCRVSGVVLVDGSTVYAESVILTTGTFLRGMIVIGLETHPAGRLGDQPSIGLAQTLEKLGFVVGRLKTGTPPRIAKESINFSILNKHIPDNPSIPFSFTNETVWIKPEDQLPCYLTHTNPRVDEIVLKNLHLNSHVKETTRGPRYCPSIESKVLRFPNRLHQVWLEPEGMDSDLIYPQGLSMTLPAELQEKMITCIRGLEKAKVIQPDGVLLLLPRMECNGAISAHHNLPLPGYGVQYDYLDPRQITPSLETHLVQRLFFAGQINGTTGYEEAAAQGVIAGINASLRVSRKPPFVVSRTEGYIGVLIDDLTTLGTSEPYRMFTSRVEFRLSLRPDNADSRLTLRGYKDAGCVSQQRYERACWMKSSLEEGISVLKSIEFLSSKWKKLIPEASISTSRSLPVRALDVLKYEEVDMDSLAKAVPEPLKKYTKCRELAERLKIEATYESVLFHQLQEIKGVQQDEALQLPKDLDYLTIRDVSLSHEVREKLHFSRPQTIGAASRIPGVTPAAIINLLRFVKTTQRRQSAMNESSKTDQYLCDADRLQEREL
UniProt Q96P53, sequence (Q96P53 whole entry): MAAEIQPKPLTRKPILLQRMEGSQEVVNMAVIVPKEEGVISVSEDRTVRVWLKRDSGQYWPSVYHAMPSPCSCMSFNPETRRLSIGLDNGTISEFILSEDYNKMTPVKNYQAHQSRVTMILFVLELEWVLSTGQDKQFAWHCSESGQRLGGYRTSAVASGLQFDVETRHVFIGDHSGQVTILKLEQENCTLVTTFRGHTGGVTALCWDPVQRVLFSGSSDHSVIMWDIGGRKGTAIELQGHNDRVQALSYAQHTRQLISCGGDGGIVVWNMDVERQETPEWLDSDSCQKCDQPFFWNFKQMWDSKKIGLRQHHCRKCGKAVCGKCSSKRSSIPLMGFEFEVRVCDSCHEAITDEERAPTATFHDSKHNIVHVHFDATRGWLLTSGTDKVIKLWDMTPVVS
UniProt Q8NBN3, sequence (Q8NBN3 whole entry): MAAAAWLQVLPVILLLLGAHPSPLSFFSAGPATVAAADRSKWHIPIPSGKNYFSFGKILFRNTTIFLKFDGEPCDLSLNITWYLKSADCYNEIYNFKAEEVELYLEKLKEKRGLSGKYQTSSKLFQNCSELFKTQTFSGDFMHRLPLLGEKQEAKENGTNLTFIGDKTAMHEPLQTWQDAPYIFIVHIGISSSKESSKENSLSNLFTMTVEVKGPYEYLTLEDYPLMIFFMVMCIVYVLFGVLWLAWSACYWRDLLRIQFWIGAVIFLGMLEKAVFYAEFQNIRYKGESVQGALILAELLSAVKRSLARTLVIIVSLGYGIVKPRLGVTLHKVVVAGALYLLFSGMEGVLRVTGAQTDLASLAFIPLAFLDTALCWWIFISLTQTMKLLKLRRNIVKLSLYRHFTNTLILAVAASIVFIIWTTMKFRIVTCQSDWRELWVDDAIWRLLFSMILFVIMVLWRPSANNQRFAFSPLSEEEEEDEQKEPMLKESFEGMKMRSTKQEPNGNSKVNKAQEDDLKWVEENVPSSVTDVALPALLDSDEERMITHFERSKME
UniProt P13489, sequence (P13489 whole entry): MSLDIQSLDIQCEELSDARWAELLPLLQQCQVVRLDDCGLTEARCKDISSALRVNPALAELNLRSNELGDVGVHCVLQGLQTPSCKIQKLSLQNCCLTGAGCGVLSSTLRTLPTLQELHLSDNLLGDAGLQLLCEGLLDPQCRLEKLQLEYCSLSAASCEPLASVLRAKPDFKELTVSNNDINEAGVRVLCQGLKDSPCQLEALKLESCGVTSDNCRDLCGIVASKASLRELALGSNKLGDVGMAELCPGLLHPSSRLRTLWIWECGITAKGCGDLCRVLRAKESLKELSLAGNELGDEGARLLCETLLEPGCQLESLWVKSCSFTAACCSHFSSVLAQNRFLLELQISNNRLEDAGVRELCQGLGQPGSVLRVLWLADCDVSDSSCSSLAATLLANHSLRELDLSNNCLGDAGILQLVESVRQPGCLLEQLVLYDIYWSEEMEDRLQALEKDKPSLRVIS
UniProt Q8N0X4, sequence (Q8N0X4 whole entry): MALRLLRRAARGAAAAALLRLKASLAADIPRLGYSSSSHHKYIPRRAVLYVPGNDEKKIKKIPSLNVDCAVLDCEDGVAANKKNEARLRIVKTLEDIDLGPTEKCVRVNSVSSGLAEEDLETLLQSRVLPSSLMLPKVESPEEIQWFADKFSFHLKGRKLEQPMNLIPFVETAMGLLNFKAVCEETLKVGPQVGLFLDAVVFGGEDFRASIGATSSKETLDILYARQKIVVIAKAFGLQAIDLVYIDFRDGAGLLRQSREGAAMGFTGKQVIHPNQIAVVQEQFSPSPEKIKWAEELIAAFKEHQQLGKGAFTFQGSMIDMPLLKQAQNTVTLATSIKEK
UniProt Q9H0L4, sequence (Q9H0L4 whole entry): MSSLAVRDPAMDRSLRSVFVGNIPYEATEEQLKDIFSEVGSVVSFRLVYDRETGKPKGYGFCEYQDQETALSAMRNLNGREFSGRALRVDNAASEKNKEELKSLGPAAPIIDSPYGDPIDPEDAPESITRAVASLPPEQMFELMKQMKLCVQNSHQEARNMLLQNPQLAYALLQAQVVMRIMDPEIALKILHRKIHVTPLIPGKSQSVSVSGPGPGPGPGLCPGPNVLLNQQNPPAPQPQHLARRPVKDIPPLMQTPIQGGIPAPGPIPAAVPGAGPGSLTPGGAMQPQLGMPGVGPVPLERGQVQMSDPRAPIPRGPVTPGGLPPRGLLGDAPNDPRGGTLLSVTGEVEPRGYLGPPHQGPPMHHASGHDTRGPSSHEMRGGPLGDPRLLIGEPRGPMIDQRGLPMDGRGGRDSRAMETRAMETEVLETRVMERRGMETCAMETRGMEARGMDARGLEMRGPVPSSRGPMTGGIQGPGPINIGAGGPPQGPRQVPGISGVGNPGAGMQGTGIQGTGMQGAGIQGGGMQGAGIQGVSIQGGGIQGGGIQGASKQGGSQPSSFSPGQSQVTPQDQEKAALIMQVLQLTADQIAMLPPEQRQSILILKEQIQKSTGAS
UniProt Q92974, sequence (Q92974 whole entry): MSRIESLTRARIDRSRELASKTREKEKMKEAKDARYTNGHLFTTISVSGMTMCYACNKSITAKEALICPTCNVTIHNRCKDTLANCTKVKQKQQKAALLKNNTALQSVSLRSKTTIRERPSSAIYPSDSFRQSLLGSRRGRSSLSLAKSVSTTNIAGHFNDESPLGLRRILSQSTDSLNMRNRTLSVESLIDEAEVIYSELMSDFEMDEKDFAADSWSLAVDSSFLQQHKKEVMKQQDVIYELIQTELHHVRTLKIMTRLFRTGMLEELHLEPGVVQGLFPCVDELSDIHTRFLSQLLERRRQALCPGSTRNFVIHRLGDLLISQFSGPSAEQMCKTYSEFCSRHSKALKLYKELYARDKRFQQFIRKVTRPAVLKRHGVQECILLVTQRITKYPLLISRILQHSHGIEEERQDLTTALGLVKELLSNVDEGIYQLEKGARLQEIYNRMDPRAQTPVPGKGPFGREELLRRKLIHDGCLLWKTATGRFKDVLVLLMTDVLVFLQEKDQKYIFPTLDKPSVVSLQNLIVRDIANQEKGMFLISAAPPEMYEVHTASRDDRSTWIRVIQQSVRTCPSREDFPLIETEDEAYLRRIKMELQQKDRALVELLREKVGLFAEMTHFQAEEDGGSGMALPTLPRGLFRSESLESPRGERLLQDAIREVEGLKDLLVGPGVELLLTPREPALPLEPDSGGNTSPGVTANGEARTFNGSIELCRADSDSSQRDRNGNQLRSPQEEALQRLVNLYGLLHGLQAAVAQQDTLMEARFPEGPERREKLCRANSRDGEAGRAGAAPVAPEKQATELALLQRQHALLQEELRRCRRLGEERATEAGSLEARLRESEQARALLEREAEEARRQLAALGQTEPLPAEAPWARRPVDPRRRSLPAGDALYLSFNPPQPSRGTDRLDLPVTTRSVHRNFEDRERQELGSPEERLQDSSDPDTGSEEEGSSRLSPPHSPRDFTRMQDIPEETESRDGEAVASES
UniProt P26045, sequence (P26045 whole entry): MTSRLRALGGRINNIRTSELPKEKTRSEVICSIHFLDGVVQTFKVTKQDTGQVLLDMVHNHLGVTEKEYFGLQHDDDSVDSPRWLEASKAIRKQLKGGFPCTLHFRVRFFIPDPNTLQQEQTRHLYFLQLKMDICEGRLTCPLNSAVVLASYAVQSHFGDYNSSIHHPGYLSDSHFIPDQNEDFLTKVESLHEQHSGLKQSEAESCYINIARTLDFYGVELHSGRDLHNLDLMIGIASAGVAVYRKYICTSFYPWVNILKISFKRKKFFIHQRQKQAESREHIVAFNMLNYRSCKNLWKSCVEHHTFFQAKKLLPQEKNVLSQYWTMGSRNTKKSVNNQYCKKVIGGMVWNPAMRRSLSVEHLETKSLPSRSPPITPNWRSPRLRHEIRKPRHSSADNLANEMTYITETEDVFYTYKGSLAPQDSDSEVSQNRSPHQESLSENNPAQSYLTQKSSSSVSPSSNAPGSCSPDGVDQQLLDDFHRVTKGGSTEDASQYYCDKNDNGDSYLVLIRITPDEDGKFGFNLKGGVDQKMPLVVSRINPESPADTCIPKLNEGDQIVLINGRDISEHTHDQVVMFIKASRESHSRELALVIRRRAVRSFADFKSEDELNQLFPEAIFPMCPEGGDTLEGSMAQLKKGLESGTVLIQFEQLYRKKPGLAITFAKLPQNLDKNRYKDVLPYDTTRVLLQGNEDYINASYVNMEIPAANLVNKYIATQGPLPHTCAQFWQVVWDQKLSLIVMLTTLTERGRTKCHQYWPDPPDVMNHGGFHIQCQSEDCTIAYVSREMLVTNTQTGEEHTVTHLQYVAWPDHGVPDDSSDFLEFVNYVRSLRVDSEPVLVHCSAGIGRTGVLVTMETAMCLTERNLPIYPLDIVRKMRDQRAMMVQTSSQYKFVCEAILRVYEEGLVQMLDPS

Target | thermal stability z-score [1, 3] | thermal stability z-score ([1]; arsenate co-treatment: none) | thermal stability z-score [2]
BABAM1 (UniProt Q9NWV8) | 0.196 | 0.129 | -0.323
AP1G1 (UniProt O43747) | -0.704 | -0.404 | 0.813
LMO7 (UniProt Q8WWI1) | 1.17 | 0.27 | -1.54
TAF6 (UniProt P49848) | -0.0822 | -0.089 | 0.318
UBR1 (UniProt Q8IWV7) | -0.198 | 0.193 | -0.191
PHF14 (UniProt O94880) | -0.247 | 0.314 | -0.242
TSTD2 (UniProt Q5T7W7) | -0.0897 | -0.178 | -0.0518
TRIM26 (UniProt Q12899) | -0.368 | -0.0684 | 0.295
PBK (UniProt Q96KB5) | -0.583 | -0.307 | 0.533
TRMT61B (UniProt Q9BVS5) | -1.22 | -0.842 | -0.271
PDCD4 (UniProt Q53EL6) | -0.493 | -0.0889 | -0.0393
IKBKB (UniProt O14920) | -0.0799 | -0.108 | -0.426
GNS (UniProt P15586) | -0.0525 | -0.0481 | -0.512
HSPA5 (UniProt P11021) | -2.56 | -1.9 | 0.434
GAMT (UniProt Q14353) | -0.374 | 0.506 | -0.0271
DHRS4 (UniProt Q9BTZ2) | -0.194 | -0.173 | 0.0753
PCYT1A (UniProt P49585) | 0.0432 | 0.294 | 1.78
LSG1 (UniProt Q9H089) | -0.18 | 0.17 | 3.55
ARHGEF2 (UniProt Q92974) | -0.182 | 0.0779 | 0.444
TARBP2 (UniProt Q15633) | 0.357 | 0.542 | -0.00318
IBA57 (UniProt Q5T440) | -0.0611 | 0.155 | -0.431
CADM1 (UniProt Q9BY67) | 0.995 | 0.905 | 0.376
STXBP3 (UniProt O00186) | 0.948 | 0.942 | 0.223
NSRP1 (UniProt Q9H0G5) | 0.844 | 0.0777 | 1.07
RNH1 (UniProt P13489) | 0.376 | 0.478 | -4.26
RHOT2 (UniProt Q8IXI1) | -0.832 | -0.929 | -0.176
CSTF2T (UniProt Q9H0L4) | 0.0672 | -0.0883 | 0.141
DDX17 (UniProt Q92841) | 0.121 | 0.424 | -0.776

Target | thermal stability z-score [1, 3] | thermal stability z-score ([1]; arsenate co-treatment: none) | thermal stability z-score [2]
VPS26A (UniProt O75436) | 0.178 | -0.395 | 0.335
LRCH3 (UniProt Q96II8) | -0.0719 | -0.00251 | -0.153
SNTB1 (UniProt Q13884) | -0.307 | 1.19 | 1.29
TMEM87A (UniProt Q8NBN3) | 0.451 | 0.36 | 0.645
RPS25 (UniProt P62851) | 0.792 | 0.586 | -0.573
RNF167 (UniProt Q9H6Y7) | -0.267 | -0.216 | 0.669
ECSIT (UniProt Q9BQ95) | 0.434 | -0.221 | -0.207
MET (UniProt P08581) | -0.338 | -0.235 | 0.073
PTPN3 (UniProt P26045) | -0.085 | -0.294 | -0.31
MTO1 (UniProt Q9Y2Z2) | 0.544 | 0.263 | 1.97
SLC27A4 (UniProt Q6P1M0) | -0.824 | -0.358 | -0.197
NDUFAF4 (UniProt Q9P032) | -0.153 | 0.199 | 0.182
CLYBL (UniProt Q8N0X4) | 0.208 | 0.433 | 0.695
THNSL1 (UniProt Q8IYQ7) | 0.202 | -0.188 | 0.0365
SF1 (UniProt Q15637) | 0.425 | 0.249 | 0.681
RAB10 (UniProt P61026) | 0.387 | 0.379 | 0.276
PDHX (UniProt O00330) | -0.515 | -0.468 | -6.67
ZDHHC6 (UniProt Q9H6R6) | 0.211 | -0.0578 | -0.412
PTCD3 (UniProt Q96EY7) | 0.272 | 0.525 | -0.0411
VPS26B (UniProt Q4G0F5) | 0.123 | -0.118 | 0.0841
FGFR1OP2 (UniProt Q9NVK5) | -0.0532 | 0.0859 | 0.0446
AHSA1 (UniProt O95433) | 0.722 | 0.671 | 0.423
UCK1 (UniProt Q9HA47) | -0.206 | -0.165 | 0.121
PLPP1 (UniProt O14494) | -0.53 | 0.262 | 0.324
WDFY2 (UniProt Q96P53) | -0.402 | -0.11 | -0.0121
TYSND1 (UniProt Q2T9J0) | -0.12 | -0.377 | -0.646
SCRN2 (UniProt Q96FV2) | 0.553 | -0.0583 | -0.185
